Measured values taken from patent US20080039422A1, “Vitamin B12-Containing Compositions and Methods of Use” (Transition Therapeutics Inc., priority 2004, published 2008).

Assay: Stability of CN-Cbl solutions stored at room temperature (3 days, 2 weeks)
Type: physicochemical
Experimental: To determine the stability of the various solutions, the clarified stocks were aliquoted into fresh tubes and stored at room temperature, protected from light, for up to two weeks. Prior to measuring the concentrations of CN-Cbl on subsequent occasions, the tubes were centrifuged for ten minutes at rcf 16,100. The concentration of CN-Cbl was measured as described above by spectrophotometry.
In the experiments described above, the concentration of CN-Cbl was measured within an hour or two after the components of the solutions were initially combined. To determine the stability of the preparations, the concentrations of CN-Cbl were measured in individual excipients after three days and the concentrations of CN-Cbl in combined excipients were measured after two weeks. Tables 3A-3B are tables showing the concentrations of CN-Cbl (mg/ml) in various solutions after three days incubation at room temperature. Solutions containing 0-60% propylene glycol (Table 3A) and solutions containing 0-40% ethanol (Table 3B) were challenged with 50, 75, 100, and 125 mg/ml CN-Cbl. Table 4 is a table showing the concentrations of CN-Cbl in excipients containing ethanol and propylene glycol after two weeks incubation at room temperature. The solutions were challenged with either 50 or 75 mg/ml CN-Cbl and the excipients contained ethanol (10, 15, or 20%) and propylene glycol (20, 30, or 40%). […] Regardless of the diminution in concentration over time, however, it was hypothesized that the initial concentrations of CN-Cbl could be restored with an additional application of energy (e.g., mixing, heating, or both mixing and heating; see below).

With cyanocobalamin [CN-Cbl] the “concentration of CN-Cbl” value (After 3 days at Room Temperature, challenge 50 mg/ml, PG 40% v/v) was 50000 µg/mL, the “concentration of CN-Cbl” value (After 3 days at Room Temperature, challenge 50 mg/ml, PG 50% v/v) was 49900 µg/mL and the “concentration of CN-Cbl” value (After 3 days at Room Temperature, challenge 50 mg/ml, PG 60% v/v) was 51500 µg/mL. For the same substance, the “concentration of CN-Cbl” value (After 3 days at Room Temperature, challenge 75 mg/ml, PG 0% v/v) was 15000 µg/mL, the “concentration of CN-Cbl” value (After 3 days at Room Temperature, challenge 75 mg/ml, PG 10% v/v) was 20100 µg/mL and the “concentration of CN-Cbl” value (After 3 days at Room Temperature, challenge 75 mg/ml, PG 20% v/v) was 25800 µg/mL. For the same substance, the “concentration of CN-Cbl” value (After 3 days at Room Temperature, challenge 75 mg/ml, PG 30% v/v) was 30500 µg/mL, the “concentration of CN-Cbl” value (After 3 days at Room Temperature, challenge 75 mg/ml, PG 40% v/v) was 40500 µg/mL and the “concentration of CN-Cbl” value (After 3 days at Room Temperature, challenge 75 mg/ml, PG 50% v/v) was 67000 µg/mL. The “concentration of CN-Cbl” value (After 3 days at Room Temperature, challenge 75 mg/ml, PG 60% v/v) was 75800 µg/mL, the “concentration of CN-Cbl” value (After 3 days at Room Temperature, challenge 100 mg/ml, PG 0% v/v) was 14900 µg/mL and the “concentration of CN-Cbl” value (After 3 days at Room Temperature, challenge 100 mg/ml, PG 10% v/v) was 19500 µg/mL. The “concentration of CN-Cbl” value (After 3 days at Room Temperature, challenge 100 mg/ml, PG 20% v/v) was 25000 µg/mL, the “concentration of CN-Cbl” value (After 3 days at Room Temperature, challenge 100 mg/ml, PG 30% v/v) was 28800 µg/mL and the “concentration of CN-Cbl” value (After 3 days at Room Temperature, challenge 100 mg/ml, PG 40% v/v) was 37600 µg/mL. For the same substance, the “concentration of CN-Cbl” value (After 3 days at Room Temperature, challenge 100 mg/ml, PG 50% v/v) was 55900 µg/mL, the “concentration of CN-Cbl” value (After 3 days at Room Temperature, challenge 100 mg/ml, PG 60% v/v) was 97200 µg/mL and the “concentration of CN-Cbl” value (After 3 days at Room Temperature, challenge 125 mg/ml, PG 0% v/v) was 14500 µg/mL. For the same substance, the “concentration of CN-Cbl” value (After 3 days at Room Temperature, challenge 125 mg/ml, PG 10% v/v) was 20400 µg/mL, the “concentration of CN-Cbl” value (After 3 days at Room Temperature, challenge 125 mg/ml, PG 20% v/v) was 23100 µg/mL and the “concentration of CN-Cbl” value (After 3 days at Room Temperature, challenge 125 mg/ml, PG 30% v/v) was 28300 µg/mL. The “concentration of CN-Cbl” value (After 3 days at Room Temperature, challenge 125 mg/ml, PG 40% v/v) was 38600 µg/mL, the “concentration of CN-Cbl” value (After 3 days at Room Temperature, challenge 125 mg/ml, PG 50% v/v) was 46200 µg/mL and the “concentration of CN-Cbl” value (After 3 days at Room Temperature, challenge 125 mg/ml, PG 60% v/v) was 78700 µg/mL. For the same substance, the “concentration of CN-Cbl” value (after three days at room temperature, challenge 50 mg/ml, EtOH 0% v/v) was 13600 µg/mL, the “concentration of CN-Cbl” value (after three days at room temperature, challenge 50 mg/ml, EtOH 10% v/v) was 20500 µg/mL and the “concentration of CN-Cbl” value (after three days at room temperature, challenge 50 mg/ml, EtOH 20% v/v) was 26900 µg/mL. The “concentration of CN-Cbl” value (after three days at room temperature, challenge 50 mg/ml, EtOH 30% v/v) was 40000 µg/mL, the “concentration of CN-Cbl” value (after three days at room temperature, challenge 50 mg/ml, EtOH 40% v/v) was 47600 µg/mL and the “concentration of CN-Cbl” value (after three days at room temperature, challenge 75 mg/ml, EtOH 0% v/v) was 15000 µg/mL. For the same substance, the “concentration of CN-Cbl” value (after three days at room temperature, challenge 75 mg/ml, EtOH 10% v/v) was 23000 µg/mL, the “concentration of CN-Cbl” value (after three days at room temperature, challenge 75 mg/ml, EtOH 20% v/v) was 26100 µg/mL and the “concentration of CN-Cbl” value (after three days at room temperature, challenge 75 mg/ml, EtOH 30% v/v) was 43000 µg/mL. For the same substance, the “concentration of CN-Cbl” value (after three days at room temperature, challenge 75 mg/ml, EtOH 40% v/v) was 53400 µg/mL, the “concentration of CN-Cbl” value (after three days at room temperature, challenge 100 mg/ml, EtOH 0% v/v) was 14900 µg/mL and the “concentration of CN-Cbl” value (after three days at room temperature, challenge 100 mg/ml, EtOH 10% v/v) was 24000 µg/mL. The “concentration of CN-Cbl” value (after three days at room temperature, challenge 100 mg/ml, EtOH 20% v/v) was 27800 µg/mL, the “concentration of CN-Cbl” value (after three days at room temperature, challenge 100 mg/ml, EtOH 30% v/v) was 34500 µg/mL and the “concentration of CN-Cbl” value (after three days at room temperature, challenge 100 mg/ml, EtOH 40% v/v) was 46100 µg/mL. The “concentration of CN-Cbl” value (after three days at room temperature, challenge 125 mg/ml, EtOH 0% v/v) was 14500 µg/mL, the “concentration of CN-Cbl” value (after three days at room temperature, challenge 125 mg/ml, EtOH 10% v/v) was 21500 µg/mL and the “concentration of CN-Cbl” value (after three days at room temperature, challenge 125 mg/ml, EtOH 20% v/v) was 28400 µg/mL. For the same substance, the “concentration of CN-Cbl” value (after three days at room temperature, challenge 125 mg/ml, EtOH 30% v/v) was 37900 µg/mL and the “concentration of CN-Cbl” value (after three days at room temperature, challenge 125 mg/ml, EtOH 40% v/v) was 50900 µg/mL.
